How the values were obtained:
[1] = Apparent permeability across apical to basolateral side in MDCK-MDR1 cells 120 mins by LC-MS/MS analysis; format: ADME, cell-based, Canis lupus familiaris; settings: dog
[2] = Apparent permeability across basolateral to apical side in MDCK-MDR1 cells assessed as drug recovery; format: ADME, cell-based, Canis lupus familiaris; settings: dog, read-out: Drug recovery
[3] = Apparent permeability across basolateral to apical side in MDCK-MDR1 cells 120 mins by LC-MS/MS analysis; format: ADME, cell-based, Canis lupus familiaris; settings: dog
[4] = Efflux ratio of apparent permeability across basolateral to apical over apical to basolateral side in MDCK-MDR1 cells; format: ADME, cell-based, Canis lupus familiaris; settings: dog
[5] = Apparent permeability across apical to basolateral side in MDCK-MDR1 cells assessed as drug recovery; format: ADME, cell-based, Canis lupus familiaris; settings: dog, read-out: Drug recovery
[6] = molecular target: Prostaglandin E2 receptor EP2 subtype (Homo sapiens, UniProt P43116); assay: Agonist activity at human EP2 receptor expressed in HEK293T/17 cells assessed as increase in GalphaS-mediated CREB activation at 10 uM measured after 6 to 24 hrs by SEAP reporter gene-based chemiluminescence assay relative to control; format: functional, cell-based
Prostaglandin E2 receptor EP2 subtype, sequence (P43116 whole entry): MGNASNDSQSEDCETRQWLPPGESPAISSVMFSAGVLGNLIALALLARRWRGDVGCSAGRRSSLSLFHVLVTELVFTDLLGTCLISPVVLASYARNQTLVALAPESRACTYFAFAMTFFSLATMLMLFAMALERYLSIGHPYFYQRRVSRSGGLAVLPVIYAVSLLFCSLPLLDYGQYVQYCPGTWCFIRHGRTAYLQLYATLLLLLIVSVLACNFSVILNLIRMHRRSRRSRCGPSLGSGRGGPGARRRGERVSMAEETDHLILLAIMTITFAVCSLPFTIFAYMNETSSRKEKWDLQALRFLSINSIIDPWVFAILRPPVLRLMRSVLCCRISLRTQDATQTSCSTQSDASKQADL

Row | Papp A→B at 2 h [1] | recovery [2] | Papp B→A at 2 h [3] | efflux ratio [4] | recovery [5] | Activity [6] | Structure (SMILES)
1 | 0.59 ×10⁻⁶ cm/s | 93% | 11.8 ×10⁻⁶ cm/s | 20 | 84% |  | CCC#CC[C@H](C)[C@H](O)/C=C/[C@H]1CC(F)(F)C(=O)N1CCCCCCC(=O)O
2 |  |  |  |  |  | < 50% | CCC#CC[C@H](C)[C@H](O)/C=C/[C@H]1CCC(=O)N1CCCCCCC(=O)O

— ChEMBL document CHEMBL4385611, “Difluoromethylene at the γ-Lactam α-Position Improves 11-Deoxy-8-aza-PGE1 Series EP4 Receptor Binding and Activity: 11-Deoxy-10,10-difluoro-8-aza-PGE1 Analog (KMN-159) as a Potent EP4 Agonist” (J Med Chem, 2019)
